Measurements published in patent US20170066780A1, “INHIBITORS OF EZH2” (Eli Lilly and Company, priority 2015, published 2017).

Tests used:
Experiment in all cases: Ovarian cancer cell line proliferation assay (CellTiter-Glo)
Type in all cases: cell-based
TOV-112D = details: Homo sapiens, TOV112D, 240 h, 7- or 10-day assay
Protocol: (§1) Test ovarian cancer cell lines for response to Example 1 or Example 38 in a 7- or 10-day proliferation assay. Optimize each cell line for cell number and splitting schedule which maximizes log phase growth in 96-well format during the 7 or 10-day period. Plate cells in a 96-well black, clear bottom, poly-D-lysine-coated 96-well plate (BD BioSciences; BD BIOCOAT™ Cellware, Poly-Lysine, Cat. #354640) on day 0 in a total volume of 90 μL cell culture media and incubate at 37° C./5% CO2 for 18-24 hrs. On day 1, prepare a compound dilution plate by the addition of 150 μL media containing 2% dimethyl sulfoxide (DMSO; Sigma-Aldrich Cat. #D2438) to columns 3-12 of a 96-well clear flat bottom plate (CORNING® COSTAR® cell culture plate Cat #3596). Prepare 10 mM stocks of Example 1 or Example 38 in 100% DMSO, and further dilute to a working concentration of 200 μM in cell culture media. Add 225 μL of Example 1 or Example 38 to column 2 of the compound dilution plate, and prepare 1:3 10-point serial dilutions of test compound with columns 3 through 12. Add 10 μL of serially diluted compound to cell plates, giving a final test compound concentration range of 1 nM to 20 μM and a final concentration of DMSO of 0.2%. At the end of the 7- or 10-day assay period, subject cells to the CELLTITER-GLO® Luminescent Cell Viability Assay (Promega, Cat. #G7570) as follows: 1) Thaw the CELLTITER-GLO® buffer and equilibrate to room temperature; 2) Equilibrate the lyophilized CELLTITER-GLO® substrate to room temperature; 3) Transfer CELLTITER-GLO® buffer to substrate bottle to form the CELLTITER-GLO® reagent; 4) Equilibrate cell plates to room temperature; 5) For adherent cells only—remove medium from cell plates; 6) Add 25 μL CELLTITER-GLO® reagent to each well; 7) Let plates incubate an additional 20-30 min at room temperature; 8) Read luminescence using the Perkin Elmer EnVision 2104 Multi Detection Microplate Reader.

A2780 = details: Homo sapiens, 240 h, 7- or 10-day assay
Protocol: as §1

HeyA8 = details: HEY A8, 240 h, 7- or 10-day assay
Protocol: as §1

TOV-21G = details: Homo sapiens, TOV21G, 240 h, 7- or 10-day assay
Protocol: as §1

Caov-3 = details: Homo sapiens, 240 h, 7- or 10-day assay
Protocol: as §1

HEC59 = details: 240 h, 7- or 10-day assay
Protocol: as §1

SKOV3 = details: Homo sapiens, SK-OV-3, 240 h, 7- or 10-day assay
Protocol: as §1

OVCAR3 = details: Homo sapiens, OVCAR-3, 240 h, 7- or 10-day assay
Protocol: as §1

COV-434 = details: COV434, 240 h, 7- or 10-day assay
Protocol: as §1

## COC1CN([C@H]2CC[C@H]([C@@H](C)c3sc4c(c3C)C(=O)N(Cc3c(C)cc(C)[nH]c3=O)CCC4)CC2)C1 [Example 38, 5-[(4,6-Dimethyl-2-oxo-1,2-dihydropyridin-3-yl)methyl]-2-{(1R)-1-[trans-4-(3-methoxyazetidin-1-yl)cyclohexyl]ethyl}-3-methyl-5,6,7,8-tetrahydro-4H-thieno[3,2-c]azepin-4-one]
TOV-112D
  IC50: 200 nM
A2780
  IC50: 200 nM
HeyA8
  IC50: > 20000 nM
TOV-21G
  IC50: 100 nM
Caov-3
  IC50: 8000 nM
HEC59
  IC50: > 20000 nM
SKOV3
  IC50: > 20000 nM
OVCAR3
  IC50: 8600 nM
COV-434
  IC50: 20 nM
